According to US20230145555A1 (priority 2020, published 2023):
Like-named read-outs stand apart in the source and are kept apart here.

Experiments:
[1] = system: K18-hACE2 transgenic mouse; type: in vivo; conditions: after 7 days
NLRP3 inflammasome = conditions: macrophages; cited from earlier work
[2] = cited from earlier work
SARS-CoV-2 = assay: Proof of concept study: time to negative SARS-CoV-2 test in asymptomatic positive patients; type: in vivo, human; conditions: resveratrol alone by nasal and throat spray and/or inhalation, 6.0 mg per day for 2 weeks; 40 patients
Description: About 100 adult asymptomatic patients, which are positive for SARS-CoV-2, are included in the study after a confirmatory test. […] Subsequently, the patients have a daily SARS-CoV-2 tests until day 7 and then at End of Treatment day 14.

[3] = RSV 30 mg in food (aqueous phospholipid formulation)
[4] = RSV 45 mg in food (aqueous phospholipid formulation)
[5] = RSV 60 mg in food (aqueous phospholipid formulation)

With Oc1ccc(/C=C/c2cc(O)cc(O)c2)cc1 [RSV, resveratrol] the “Survival Rate [%]” value [1, 3] was 37.5%, the “Survival Rate n/8” value [1, 3] was 3 n/8 and the “Survival Rate [%]” value [1, 4] was 50%. For the same compound, the “Survival Rate n/8” value [1, 4] was 4 n/8, the “Survival Rate [%]” value [1, 5] was 62.5% and the “Survival Rate n/8” value [1, 5] was 5 n/8. The “NLRP3 inflammasome-derived IL-1β secretion and pyroptosis” value (NLRP3 inflammasome) was “inhibits”, the solubility in water [2] was “almost insoluble” and the “time to negative SARS-CoV-2 test compared to patients without treatment” value (SARS-CoV-2) was “significantly earlier”.
